Consider 19 compounds from US10882838B2, “Cannabinergic compounds and uses thereof” (Northeastern University, priority 2012, dated 2021).

Where two headings read alike, the source gives them in different places.

One data set has as its target hCB2 receptor (Homo sapiens (Human), UniProt P34972). Put plainly: hCB2 competition-equilibrium binding with [3H]CP-55,940, membranes of HEK293 cells expressing hCB2. The protocol: (§1) HEK293 cells expressing hCB1 or hCB2 or mCB2 receptor are used for membrane preparations according to Abadji et al. The resulting pellet is resuspended in 10 mM Tris-chloride, pH 7.4, with 5 mM MgCl2 and 2 mM EDTA (TME), rapidly frozen in liquid nitrogen and stored at −80° C. for no longer than two months. Protein content is assayed by using the Bio-Rad protein assay according to the manufacturer's protocol.
(§2) All the cannabinoids discussed in this invention are tested for their ability to bind to CB1 and CB2 receptors using membranes from rat brain or HEK293 cells expressing either mCB2 or hCB2, respectively via competition-equilibrium binding using [^3H]CP-55,940. Results are analyzed using nonlinear regression to determine ligand IC50 (Prism by GraphPad Software, Inc.), and Ki values are calculated from the IC50. IC50 and Ki values are determined from at least three independent experiments.

The target of the next data set is mCB2 receptor (Mus musculus (Mouse), UniProt P47936). In words: mCB2 competition-equilibrium binding with [3H]CP-55,940, membranes of HEK293 cells expressing mCB2. The protocol:
as §1, §2

In the next data set the target is CB1 receptor (Rattus norvegicus (Rat), UniProt P20272). In words: rCB1 competition-equilibrium binding with [3H]CP-55,940, rat brain membranes. How it is done: Frozen rat brains (CB1 source) are obtained from Pel-Freeze Biologicals (Rogers, Ak.) and stored at −80° C. until use. Membranes are prepared according to the method described by Dodd et al. and used in our laboratory as reported.
as §2

Data set [1] is described as follows: Stability in plasma (half-life). It is filed as in vitro ADME, rat or monkey. Particulars: method: 200 μM in plasma, 37°; species of plasma not given. How it is done: The designed compounds carry a side chain that is susceptible to plasma esterase activity, inviting their rapid deactivation. Thus, it is important to characterize the rate of compound metabolism in isolated rat or monkey plasma. As a preliminary predictor of oral stability, this assay will also be done in buffers at pH 2 (to emulate the stomach) and pH 7.4 (physiological pH). Compounds (10 mM in DMSO) are diluted in plasma, acetonitrile or buffer to a concentration of 200 μM and incubated in a 37° shaking water bath for 2 hours. Samples are taken periodically, diluted 1:4 with acetonitrile and centrifuged to precipitate protein. The resulting supernatant is analyzed by HPLC to predict expected in vivo plasma half-lives.

The conditions of data set [2]: background statement; cited from earlier work.
For data set [3] the following is noted: background statement, up to; cited from earlier work.
The conditions of data set [4]: background statement; cited from earlier work. This is another data set of the same source.
[5] abbreviates: HEK293 cells expressing hCB2, [3H]CP-55,940, read-out: hCB2 Ki.
[6] abbreviates: HEK293 cells expressing mCB2, [3H]CP-55,940, read-out: mCB2 Ki.
[7] abbreviates: rat brain membranes, [3H]CP-55,940, read-out: rCB1 Ki.

As a reminder, the Ki is the dissociation constant of the complex between target and ligand, obtained from inhibition or displacement. What is called half-life is how long it takes for the measured level to halve. `CC1=CC[C@@H]2[C@@H](C1)c1c(O)cc(C(C)(C)C(=O)OCCCCn3ccnc3)cc1OC2(C)C` [Compound 1.6, 4-(1H-imidazol-1-yl)butyl 2-((6aR,10aR)-6a,7,10,10a-tetrahydro-1-hydroxy-6,6,9-trimethyl-6H-benzo[c]chromen-3-yl)-2-methylpropanoate]: the Ki on hCB2 receptor (setting [5]) is 8.7 nM; at mCB2 receptor (setting [6]), 11.6 nM; at CB1 receptor (setting [7]) it was 29.1 nM. The same compound returned a half-life at 200 μM in data set [1] of 120 min.
In the same order, the values of `CC1=CC[C@@H]2[C@@H](C1)c1c(O)cc(C(C)(C)C(=O)OCCCn3ccnc3)cc1OC2(C)C` [Compound 1.10, 3-(1H-imidazol-1-yl)propyl-2-((6aR,10aR)-6a,7,10,10a-tetrahydro-1-hydroxy-6,6,9-trimethyl-6H-benzo[c]chromen-3-yl)-2-methylpropanoate] are 1.2 nM, 2 nM, 3.4 nM and 240 min.
Regarding `CCCCOC(=O)C1(c2cc(O)c3c(c2)OC(C)(C)[C@@H]2CC=C(C)C[C@@H]32)CCC1` [Compound 1.20, butyl 1-((6aR,10aR)-1-hydroxy-6,6,9-trimethyl-6a,7,10,10a-tetrahydro-6H-benzo[c]chromen-3-yl)cyclobutane carboxylate], the Ki came out at 0.4 nM on hCB2 receptor (setting [5]), 0.7 nM on mCB2 receptor (setting [6]) and 0.7 nM at CB1 receptor (setting [7]). The half-life at 200 μM in data set [1] turned out to be 40 min.
Regarding `COC(=O)C(C)(C)c1cc(O)c2c(c1)OC(C)(C)[C@@H]1CC=C(C)C[C@@H]21` [Compound 1.34, Methyl-2-((6aR,10aR)-6a,7,10,10a-tetrahydro-1-hydroxy-6,6,9-trimethyl-6H-benzo[c]chromen-3-yl)-2-methylpropanoate], the Ki on hCB2 receptor (setting [5]) is 36.8 nM; on mCB2 receptor (setting [6]) it was 34.5 nM; at CB1 receptor (setting [7]), 83.1 nM. Also, in data set [1], the half-life at 200 μM worked out at 60 min.
The matching figures for `CCCCOC(=O)C(C)(C)c1cc(O)c2c(c1)OC(C)(C)[C@@H]1CC=C(CO)C[C@@H]21` [Compound 2.2, Butyl-2-((6aR,10aR)-6a,7,10,10a-tetrahydro-1-hydroxy-9-(hydroxymethyl)-6,6-dimethyl-6H-benzo[c]chromen-3-yl)-2-methylpropanoate]: 0.8 nM, 1.5 nM, 0.6 nM and 5 min.
As to `CCCCOC(=O)C(C)c1cc(O)c2c(c1)OC(C)(C)[C@@H]1CC=C(C)C[C@@H]21` (stereo partly drawn) [Compound 1.12, Butyl 2-((6aR,10aR)-1-hydroxy-6,6,9-trimethyl-6a,7,10,10a-tetrahydro-6H-benzo[c]chromen-3-yl)propanoate], the Ki amounted to 1 nM on hCB2 receptor (setting [5]), 1.2 nM at mCB2 receptor (setting [6]) and 0.7 nM at CB1 receptor (setting [7]). In data set [1], this compound returned a half-life at 200 μM of 3 min.
The matching figures for `CC(C)(C(=O)OCCCCn1ccnc1)c1cc(O)c2c(c1)OC(C)(C)[C@@H]1CC=C(CO)C[C@@H]21` [Compound 2.3, 4-(1H-imidazol-1-yl)-butyl-2-((6aR,10aR)-6a,7,10,10a-tetrahydro-1-hydroxy-9-(hydroxymethyl)-6,6-dimethyl-6H-benzo[c]chromen-3-yl)-2-methylpropanoate]: 8.7 nM, 11.6 nM, 25.3 nM and 120 min.
With `CC1=CC[C@@H]2[C@@H](C1)c1c(O)cc(CC(=O)OCCCCBr)cc1OC2(C)C` [Compound 1.27, 4-bromobutyl-2-((6aR,10aR)-6a,7,10,10a-tetrahydro-1-hydroxy-6,6,9-trimethyl-6H-benzo[c]chromen-3-yl)acetate], the Ki on hCB2 receptor (setting [5]) turned out to be 7.1 nM; on mCB2 receptor (setting [6]), 11.6 nM; on CB1 receptor (setting [7]), 2.2 nM. The compound also returned a half-life at 200 μM in data set [1] of 3 min.
Take `CC1=CC[C@H]2[C@@H](C1)c1c(O)cc(C(C)(C)C(=O)OCCCCBr)cc1OC2(C)C` [Compound 1.2, 4-bromobutyl-2-((6aS,10aR)-6a,7,10,10a-tetrahydro-1-hydroxy-6,6,9-trimethyl-6H-benzochromen-3-yl)-2-methylpropanoate]: the Ki was determined as 0.8 nM at hCB2 receptor (setting [5]), 0.6 nM on mCB2 receptor (setting [6]) and 1.2 nM at CB1 receptor (setting [7]). Besides, in data set [1], the “t 1/2” value stood at 15 min.
With `CCCCOC(=O)C(C)(C)c1cc(O)c2c(c1)OC(C)(C)[C@@H]1CC[C@@H](O)C[C@@H]21` [Compound 3.6, Butyl-2-((6aR,9R,10aR)-6a,7,8,9,10,10a-hexahydro-1,9-dihydroxy-6,6-dimethyl-6H-benzo[c]chromen-3-yl)-2-methylpropanoate], the Ki at hCB2 receptor (setting [5]) stood at 0.2 nM; at mCB2 receptor (setting [6]), 0.2 nM; on CB1 receptor (setting [7]), 0.1 nM. In data set [1], this compound yielded a half-life at 200 μM of 3 min.
Consider `CCCCCc1cc(O)c2c(c1)OC(C)(C)[C@@H]1CCC(C)=C[C@@H]21` [Dronabinol], for which the protein binding in data set [2] is on record as at least 97%. Besides, the “slow and erratic absorption” value in data set [3] was 2 to 6 h. Besides, the “clog P” value in data set [4] is on record as above 7.
`CCCCOC(=O)C(C)(C)c1cc(O)c2c(c1)OC(C)(C)[C@@H]1CC[C@H](O)C[C@@H]21` [Compound 3.8, Butyl-2-((6aR,9S,10aR)-6a,7,8,9,10,10a-hexahydro-1,9-dihydroxy-6,6-dimethyl-6H-benzo[c]chromen-3-yl)-2-methylpropanoate]: the Ki on hCB2 receptor (setting [5]) was determined as 4.5 nM; on mCB2 receptor (setting [6]), 6.6 nM; at CB1 receptor (setting [7]), 3.1 nM. In addition, the half-life at 200 μM in data set [1] was 8 min.
In the same order, the values of `CCCCOC(=O)Cc1cc(O)c2c(c1)OC(C)(C)[C@@H]1CC=C(C)C[C@@H]21` [Compound 1.29, Butyl-2-((6aR,10aR)-6a,7,10,10a-tetrahydro-1-hydroxy-6,6,9-trimethyl-6H-benzo[c]chromen-3-yl)acetate] are 8.2 nM, 27 nM, 40.3 nM and 5 min.
In the same order, the values of `CC1=CC[C@@H]2[C@@H](C1)c1c(O)cc(C3(C(=O)OCCCCC#N)CCC3)cc1OC2(C)C` [Compound 1.19, 4-cyanobutyl 1-((6aR,10aR)-1-hydroxy-6,6,9-trimethyl-6a,7,10,10a-tetrahydro-6H-benzo[c]chromen-3-yl)cyclo butanecarboxylate] are 1.8 nM, 1.5 nM, 0.9 nM and 107 min.
The matching figures for `CC1=CC[C@@H]2[C@@H](C1)c1c(O)cc(C3(C(=O)OCCCCBr)CCC3)cc1OC2(C)C` [Compound 1.18, 4-bromobutyl 1-((6aR,10aR)-1-hydroxy-6,6,9-trimethyl-6a,7,10,10a-tetrahydro-6H-benzo[c]chromen-3-yl)cyclobutanecarboxylate]: 0.7 nM, 3.7 nM, 0.3 nM and 50 min.
Regarding `CC1=CC[C@@H]2[C@@H](C1)c1c(O)cc(C(C)(C)C(=O)OCCCCN3CCOCC3)cc1OC2(C)C` [Compound 1.24, 4-morpholinobutyl 2-((6aR,10aR)-1-hydroxy-6,6,9-trimethyl-6a,7,10,10a-tetrahydro-6H-benzo[c]chromen-3-yl)-2-methylpropanoate], the results for the Ki on hCB2 receptor (setting [5]), at mCB2 receptor (setting [6]) and at CB1 receptor (setting [7]) were 39.9 nM, 71.8 nM and 33.8 nM, respectively. This compound also had a half-life at 200 μM in data set [1] of 68 min.
With `CC1=CC[C@@H]2[C@@H](C1)c1c(O)cc(C(C)(C)C(=O)OCCCN3CCOCC3)cc1OC2(C)C` [Compound 1.25, 3-morpholinopropyl 2-((6aR,10aR)-1-hydroxy-6,6,9-trimethyl-6a,7,10,10a-tetrahydro-6H-benzo[c]chromen-3-yl)-2-methylpropanoate], the results for the Ki on hCB2 receptor, on mCB2 receptor and at CB1 receptor were 8.7 nM, 10.4 nM and 15.2 nM, respectively. This compound had a half-life at 200 μM in data set [1] of 200 min.
For the compound `CCCCOC(=O)[C@H](C)c1cc(O)c2c(c1)OC(C)(C)[C@@H]1CC=C(C)C[C@@H]21` [Compound 1.14, (R)-butyl 2-((6aR,10aR)-1-hydroxy-6,6,9-trimethyl-6a,7,10,10a-tetrahydro-6H-benzo[c]chromen-3-yl)propanoate], the values for the Ki on hCB2 receptor (setting [5]), at mCB2 receptor (setting [6]) and on CB1 receptor (setting [7]) were 1.4 nM, 1.4 nM and 0.9 nM, respectively. The same compound registered a half-life at 200 μM in data set [1] of 7 min.
Consider `CCCCCCC(C)(C)c1cc(O)c2c(c1)OC(C)(C)C1CCC(=O)CC21` (stereo not shown) [Nabilone], for which the protein binding in data set [2] is listed as at least 97%. The “clog P” value in data set [4] was above 7.
